Results reported in BindingDB's records for doi:10.1021/ml400486k (University of California, 2014).
pIC50: −log10 of the molar value.

Assay: Inhibition of Bacillus anthracis lethal toxin-induced mouse RAW264.7 cell death preincubated for 1 hr followed by lethal toxin challenge measured after 4 hrs

| Compound | pIC50 |
| --- | --- |
| Cc1cc(C)c(NC(=O)N/N=C/c2ccc(Br)cc2)c(C)c1 | 4.90 |
| CCc1cccc(CC)c1NC(=O)N/N=C/c1ccc(Br)cc1 | < 4.90 |
| Cc1cccc(C)c1NC(=O)N/N=C/c1ccc(Br)cc1 | 5.85 |
| Cc1cccc(C)c1NC(=O)N/N=C/c1ccc(Br)cc1F | 6.40 |
| Cc1cccc(C)c1NC(=O)N/N=C/c1ccc(Cl)cc1 | 5.77 |
| Cc1cccc(C)c1NC(=O)N/N=C/c1ccccc1F | 5.09 |
| Cc1ccc(/C=N/NC(=O)Nc2c(C)cccc2C)cc1F | 5.74 |
| Cc1cccc(C)c1NC(=O)N/N=C/c1ccc(F)cc1 | 5.15 |
| Cc1cccc(C)c1NC(=O)N/N=C/c1ccc(F)cc1F | 5.68 |
| Cc1cccc(/C=N/NC(=O)Nc2c(C)cccc2C)c1 | 4.87 |
| Cc1ccc(/C=N/NC(=O)Nc2c(C)cccc2C)cc1 | 5.54 |
| CCc1ccc(/C=N/NC(=O)Nc2c(C)cccc2C)cc1 | 5.52 |
| Cc1cccc(C)c1NC(=O)N/N=C/c1ccc(C(C)C)cc1 | 5.19 |
| COc1ccc(/C=N/NC(=O)Nc2c(C)cccc2C)cc1 | < 4.90 |
| C#Cc1ccc(/C=N/NC(=O)Nc2c(C)cccc2C)cc1 | 5.77 |
| Cc1cccc(C)c1NC(=O)N/N=C/c1ccc(I)cc1 | 5.74 |
| Cc1cccc(C)c1NC(=O)N/N=C/c1ccc(C(F)(F)F)cc1 | 5.59 |

| Compound | pIC50 |
| --- | --- |
| Cc1cccc(C)c1NC(=O)N/N=C/c1ccc(C#N)cc1 | 5.60 |
| Cc1cccc(C)c1NC(=O)N/N=C/c1ccc(Br)o1 | < 4.60 |
| Cc1cccc(C)c1NC(=O)N/N=C/c1cccs1 | < 4.60 |
| Cc1cccc(C)c1NC(=O)N/N=C/c1ccc(Br)s1 | 5.77 |
| Cc1cccc(C)c1NC(=O)N/N=C/c1c(F)cc(Br)cc1F | 5.40 |
| Cc1cccc(C)c1NC(=O)N/N=C/c1ccc(Br)cc1Cl | 5.49 |
| Cc1cccc(C)c1NC(=O)N/N=C/c1ccc(Br)c(F)c1 | 5.82 |
| Cc1cccc(C)c1NC(=O)N/N=C/c1ccc(Br)c(Cl)c1 | 5.47 |
| C/C(=N\NC(=O)Nc1c(C)cccc1C)c1ccc(Br)cc1 | 5.60 |
| Cc1cccc(C)c1NC(=O)N(C)/N=C/c1ccc(Br)cc1 | 5.70 |
| C#CCN(/N=C/c1ccc(Br)cc1)C(=O)Nc1c(C)cccc1C | < 4.90 |
| Cc1cccc(C)c1NC(=S)N/N=C/c1ccc(Br)cc1 | 5.82 |
| Cc1cccc(C)c1NC(=O)N/N=C/c1ccc(N=[N+]=[N-])cc1F | 5.66 |
| Cc1cccc(C)c1NC(=O)N/N=C/c1ccc(N=[N+]=[N-])cc1 | 5.55 |
| Cc1cccc(C)c1/N=C(\N)N/N=C/c1ccc(Br)cc1 | 4.86 |
| Cc1cccc(C)c1NC(=O)N/N=C/c1c(F)c(F)c(N=[N+]=[N-])c(F)c1F | < 4.60 |
